From patent publication US5648366A, “Substituted pyrrolidin-3-yl-alkyl-piperidines” (Merrell Pharmaceuticals Inc., priority 1995, dated 1997)

Legend:
NK1 receptor = NK1 receptor (Cavia porcellus, UniProt P30547); assay: Antagonism of SP-induced plasma protein extravasation in guinea pig trachea; format: in vivo; parameters: SP-induced plasma protein extravasation in guinea pig trachea; from tissue; host or cells: living guinea pig; trachea and primary bronchi; details: i.v.
Procedure: ANTAGONISM OF SP-INDUCED PLASMA PROTEIN EXTRAVASATION IN GUINEA PIG TRACHEA
SP-induced protein leakage through postcapillary venules was assessed by measuring Evans Blue dye accumulation in guinea pig trachea. Animals were anesthetized with pentobarbital then injected with Evans Blue dye (20 mg/kg, i.v., prepared in 0.9% NaCl solution). One minute after dye administration, the antagonist was administered (i.v.) followed by SP (0.3 nmole/kg, i.v.) and, after 5 min, excess dye removed from the circulation by transcardiac perfusion with 50 ml 0.9% NaCl solution. The trachea and primary bronchi were removed, blotted dry and weighed. Dye quantitation was performed spectrophotometrically ([…]) after extracting tissues in formamide for 24 hr at 50° C. Values were subtracted from background (dye only, no agonist). ED50 (dose of compound which inhibits SP-induced plasma protein extravasation by 50%) was calculated from linear regression analysis.

NK2 receptor = assay: Antagonism of NKA aerosol induced respiratory effects in conscious guinea pigs; format: in vivo, guinea pig; details: 20 min prior to NKA aerosol (0.05%); for DYSPNEA ONSET: mean and SEM
Procedure: ANTAGONISM OF NKA AND CAPSAICIN INDUCED R[…] IN CONSCIOUS GUINEA PIGS
In vivo experiments were performed using male Duncan Hartley guinea pigs (250-350 g). Changes in conscious breathing patterns were monitored in four animals simultaneously using modified whole body plethysmography consisting of four small plexiglass boxes each connected to a reference box via Validyne DP 45-16 differential pressure transducers. The 4 boxes were equipped with an air supply line (also used for aerosol delivery) and an exhaust air line. Supply and exhaust lines were of the same length and narrow bore and arose from a common supply chamber and vented to a common exhaust chamber. This system was used to ensure that fluctuations in supply air and atmospheric pressure would remain in phase and be eliminated from the net signal by the differential pressure transducers. The analog pressure signals were digitalized via a Data Translation DT2821 A to D board. Data were collected at a rate of 100 samples/second/animal. Each cycle of pressure change was analyzed using the following parameters: rising and falling slope determined between minimum and maximum pressures, the ratio of rising over falling slope, and the magnitude of the change between initial trough pressure and peak cycle pressure. Using these values (and observing the animals) the pressure cycles were characterized into normal breaths, forced exhalations (apparent by abdominal heaving), significant respiratory events (SREs; usually coughs, less often sneezes or gasps which were characterized by transient, extremely large pressure increases which were distinguishable from noise) and movement/noise with a PCAT 286 running a System V UNIX operating system. Dyspnea was defined as a significant, sustained increase in plethysmograph pressure which was associated with an observable shift to labored breathing in the animal.
During the course of a typical experiment in which airway responsiveness to various bronchoconstricting agents was examined, aerosols were delivered for 19 min (0.33 ml/min) using a DeVilbiss Ultraneb 99 ultrasonic nebulizer and animals monitored during this time. Prior to nebulization, 1 min of resting breathing was collected to establish a baseline pressure. […] The vehicle for nebulization of all bronchoconstrictive agents was phosphate buffered saline (pH 7.4) which elicited no r[…] itself. Putative tachykinin antagonists were administered either (i.v.) 20 min prior to onset of aerosol exposure or orally 1 hour prior to onset (to guinea pigs after an overnight fast).
Table 6 illustrates the effects of the compounds of Example 3; Example 20A; and Example 5A on r[…] induced by NKA aerosol. […] These effects were dose dependent i.e. the higher the dose of compound, the greater attenuation of NKA-mediated effects.

NK1 receptor, sequence (P30547 whole entry): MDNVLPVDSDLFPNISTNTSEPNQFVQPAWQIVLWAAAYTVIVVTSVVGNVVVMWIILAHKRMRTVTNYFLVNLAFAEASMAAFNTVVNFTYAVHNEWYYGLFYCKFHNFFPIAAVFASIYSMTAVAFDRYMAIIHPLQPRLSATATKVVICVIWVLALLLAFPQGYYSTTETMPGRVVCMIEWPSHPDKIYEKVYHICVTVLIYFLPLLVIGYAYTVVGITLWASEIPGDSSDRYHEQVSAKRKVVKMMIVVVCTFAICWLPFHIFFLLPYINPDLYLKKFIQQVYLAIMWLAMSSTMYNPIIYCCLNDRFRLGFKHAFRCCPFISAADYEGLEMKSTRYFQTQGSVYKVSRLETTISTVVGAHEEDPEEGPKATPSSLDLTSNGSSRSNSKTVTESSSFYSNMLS

COc1cc(C(=O)N2CCC(CCN3CCC(C(N)=O)(c4ccccc4)CC3)(c3ccc(Cl)c(Cl)c3)C2)cc(OC)c1OC (stereo not drawn) [Example 3, 1-[2-[3-(3,4-dichloro-phenyl)-1-(3,4,5-trimethoxy-benzoyl)-pyrrolidin-3-yl]-ethyl]-4-phenyl-piperidine-4-carboxylic acid amide]
antagonism of SP-induced plasma protein extravasation (in words, FIG. 2) (NK1 receptor): dose related antagonism
relative potency as NK-1 receptor antagonists (in words) (NK1 receptor; Example 3 versus Example 20A): equipotent
DYSPNEA INCIDENCE (NK2 receptor; 5 mg/kg): 86%
DYSPNEA ONSET (NK2 receptor; 5 mg/kg): 394 ± 32 s
DYSPNEA INCIDENCE (NK2 receptor; 10 mg/kg): 60%
DYSPNEA ONSET (NK2 receptor; 10 mg/kg): 801 ± 104 s
